Test results published in patent US20250049970A1, “DLL3 TARGETING PEPTIDES AND CONSTRUCTS THEREOF” (MARIANA ONCOLOGY INC., priority 2023, published 2025).
*1 amine or outer side, *2 acyl side, *3 side chain or, on linkers, in order; H or OH if unused. Where a SMILES comes first, the peptide text is derived from it. Bridges are numbered along the chain shown (N, C = ends). [ ]: non-standard residue; d: D form. The star is where a group is joined. Ala(1-CH2CO2H-4-piperidyl) = N[C@@H](CC1CCN(CC(=O)O)CC1)C(=O)O; Ala(piperidin-4-yl) = O=C([C@H](CC1CCN([*:3])CC1)N[*:1])[*:2]; DOTA = O=C(O)CN1CCN(CC(=O)O)CCN(CC(=O)*)CCN(CC(=O)O)CC1; Trp(5-OH) = N[C@@H](Cc1c[nH]c2ccc(O)cc12)C(=O)O; Trp(7-Me) = Cc1cccc2c(C[C@H](N)C(=O)O)c[nH]c12; Trp(1-Me) = Cn1cc(C[C@H](N)C(=O)O)c2ccccc21; 2Nal = N[C@@H](Cc1ccc2ccccc2c1)C(=O)O; NMetBuAla = CN[C@@H](CC(C)(C)C)C(=O)O; NMeH = CN[C@@H](Cc1c[nH]cn1)C(=O)O; tBuAla = CC(C)(C)C[C@H](N)C(=O)O; NMeD = CN[C@@H](CC(=O)O)C(=O)O; NMeN = CN[C@@H](CC(N)=O)C(=O)O; NMeNle = CCCC[C@H](NC)C(=O)O; Dab = NCC[C@H](N)C(=O)O; CH2 = C([*:1])[*:2]

The compounds below were run against T1, DLL3 (Homo sapiens, UniProt Q9NYJ7) (assay: SPR KD, biotinylated human DLL3 on streptavidin chip (Table 8)). Details: biotinylated human DLL3 on streptavidin sensor chip, 25° C., 1:1 binding model; read-out: SPR KD.
T1 sequence (Q9NYJ7 27-618): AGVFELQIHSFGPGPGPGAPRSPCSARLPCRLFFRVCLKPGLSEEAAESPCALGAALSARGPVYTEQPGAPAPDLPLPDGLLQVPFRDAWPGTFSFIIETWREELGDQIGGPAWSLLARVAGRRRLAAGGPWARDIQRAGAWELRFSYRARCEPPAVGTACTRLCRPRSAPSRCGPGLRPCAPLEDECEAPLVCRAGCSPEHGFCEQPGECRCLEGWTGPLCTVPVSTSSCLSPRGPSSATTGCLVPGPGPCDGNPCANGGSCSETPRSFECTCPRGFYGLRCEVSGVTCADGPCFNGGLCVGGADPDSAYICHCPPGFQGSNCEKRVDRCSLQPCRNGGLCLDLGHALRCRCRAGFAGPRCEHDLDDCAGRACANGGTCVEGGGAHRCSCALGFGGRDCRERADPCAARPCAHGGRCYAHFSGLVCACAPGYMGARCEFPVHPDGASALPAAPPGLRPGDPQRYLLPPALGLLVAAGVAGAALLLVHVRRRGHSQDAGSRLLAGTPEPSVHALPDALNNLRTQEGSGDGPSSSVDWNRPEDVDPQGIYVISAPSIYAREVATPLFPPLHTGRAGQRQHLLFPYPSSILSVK
Set-up: biotin (biotinylated)
Source text: Biotinylated target ligand human DLL3 was immobilized on a streptavidin sensor chip. A reference surface was set up for nonspecific binding and refractive index changes. […] Sensorgram curves were fitted with 1:1 binding model, and affinity and kinetic parameters were obtained using Biacore Insight evaluation 4.0. software.

Row | Kd | SMILES
1 | 1 to 10 nM | CC[C@H](C)[C@H](NC(=O)[C@@H](NC(=O)[C@H](Cc1c[nH]c2ccccc12)NC(=O)[C@@H](C)NC(C)=O)[C@@H](C)O)C(=O)N[C@H]1CSSC[C@@H](C(=O)N[C@@H](Cc2c[nH]c3ccccc23)C(=O)N2CCC[C@H]2C(N)=O)NC(=O)[C@H](CC(=O)O)NC(=O)[C@H](Cc2cnc[nH]2)NC(=O)[C@H](Cc2c[nH]c3ccccc23)NC(=O)[C@H](CC(N)=O)NC(=O)[C@H](CC(N)=O)NC1=O [compound 2, Ac-(D-Ala)-W-T-I-C(3)-N-N-W-H-D-C(3)-W-P-CONH2] (Ac-[dA]WTICNNWHDCWP-NH2; disulfide 5-11)
2 | 10 to 100 nM | CC[C@H](C)[C@H](NC(=O)[C@@H](NC(=O)[C@H](Cc1c[nH]c2ccc(O)cc12)NC(C)=O)[C@@H](C)O)C(=O)N[C@H]1CSSC[C@@H](C(=O)N[C@@H](Cc2c[nH]c3ccccc23)C(=O)N2CCC[C@H]2C(N)=O)NC(=O)[C@H](CC(=O)O)NC(=O)[C@H](Cc2c[nH]cn2)NC(=O)[C@H](Cc2c[nH]c3ccccc23)NC(=O)[C@H](CC(N)=O)NC(=O)[C@H](CC(N)=O)NC1=O [compound 27, Ac-(5OH-W)-T-I-C(3)-N-N-W-H-D-C(3)-W-P-CONH2] (Ac-[Trp(5-OH)]TICNNWHDCWP-NH2; disulfide 4-10)
3 | 100 to 300 nM | CC[C@H](C)[C@H](NC(=O)[C@@H](NC(=O)[C@H](Cc1c[nH]c2ccccc12)NC(C)=O)[C@@H](C)O)C(=O)N[C@H]1CCC(=O)NCC[C@@H](C(=O)N[C@@H](Cc2c[nH]c3ccccc23)C(=O)N2CCC[C@H]2C(N)=O)NC(=O)[C@H](CC(=O)O)NC(=O)[C@H](Cc2c[nH]cn2)NC(=O)[C@H](Cc2c[nH]c3ccccc23)NC(=O)[C@H](CC(N)=O)NC(=O)[C@H](CC(N)=O)NC1=O [compound 71] (Ac-WTIENNWHD[Dab]WP-NH2; lactam 4-10)
4 | < 1 nM | CC(=O)N[C@@H](Cc1c[nH]c2ccccc12)C(=O)N[C@H](C(=O)N[C@@H](CC(C)(C)C)C(=O)N[C@H]1CSSC[C@@H](C(=O)N[C@@H](Cc2c[nH]c3ccccc23)C(=O)N2CCC[C@H]2C(N)=O)NC(=O)[C@H](CC(=O)O)NC(=O)[C@H](CCCCNC(=O)CN2CCN(CC(=O)O)CCN(CC(=O)O)CCN(CC(=O)O)CC2)NC(=O)[C@H](Cc2ccc3ccccc3c2)NC(=O)[C@H](CC(N)=O)NC(=O)C(CN2CCOCC2)NC1=O)[C@@H](C)O (single isomer, unassigned) [compound 310, Ac-W-T-(t-Bu-Ala)-C(3)-[3-(1-morpholinyl)-Ala]-N-(2Nal)-Lys(DOTA)-D-C(3)-W-P-CONH2]
5 | 10 to 100 nM | CC[C@H](C)[C@H](NC(=O)[C@@H](NC(=O)[C@H](Cc1c[nH]c2ccccc12)NC(C)=O)[C@@H](C)O)C(=O)N[C@H]1CSSC[C@@H](C(=O)N[C@@H](Cc2c[nH]c3ccccc23)C(=O)N2CCC[C@H]2C(=O)O)NC(=O)[C@H](CC(=O)O)NC(=O)[C@H](Cc2c[nH]cn2)NC(=O)[C@H](Cc2c[nH]c3ccccc23)NC(=O)[C@H](CC(N)=O)N(C)C(=O)[C@H](CC(N)=O)NC1=O [compound 385, Ac-W-T-I-C(3)-N-(NmeN)-W-H-D-C(3)-W-P-CONH2] (Ac-WTICN[NMeN]WHDCWP-OH; disulfide 4-10)
6 | 100 to 300 nM | CC[C@H](C)[C@H](NC(=O)[C@@H](NC(=O)[C@H](Cc1c[nH]c2ccccc12)NC(=O)[C@H](CCSC)NC(C)=O)[C@@H](C)O)C(=O)N[C@H]1CSSC[C@@H](C(=O)N[C@@H](Cc2c[nH]c3ccccc23)C(=O)N[C@H](C)C(N)=O)NC(=O)[C@H](CC(=O)O)NC(=O)[C@H](Cc2cnc[nH]2)NC(=O)[C@H](Cc2c[nH]c3ccccc23)NC(=O)[C@H](CC(N)=O)NC(=O)[C@H](CC(N)=O)NC1=O [compound 10, Ac-M-W-T-I-C(3)-N-N-W-H-D-C(3)-W-(D-Ala)-CONH2] (Ac-MWTICNNWHDCW[dA]-NH2; disulfide 5-11)
7 | < 1 nM | CC(=O)N[C@H](Cc1c[nH]c2ccccc12)C(=O)N[C@@H](C(=O)N[C@@H](CC(C)(C)C)C(=O)N[C@H]1CSCSC[C@H](C(=O)N[C@@H](Cc2c[nH]c3ccccc23)C(=O)N2CCC[C@H]2C(N)=O)NC(=O)[C@H](CC(=O)O)NC(=O)[C@H](CCCCNC(=O)CN2CCN(CC(=O)O)CCN(CC(=O)O)CCN(CC(=O)O)CC2)NC(=O)[C@H](Cc2ccc3ccccc3c2)NC(=O)[C@H](CC(N)=O)NC(=O)[C@H](CC(N)=O)NC1=O)[C@H](C)O [compound 424, Ac-W-T-(t-Bu-Ala)-C(1)-N-N-(2Nal)-Lys(DOTA)-D-[D-Cys(1)]-W-P-CONH2] (Ac-[dW][dT][tBuAla]CNN[2Nal]K(DOTA)D[dC]WP-NH2; linker 4-10 via CH2)
8 | < 1 nM | CCCC[C@@H](C(=O)N[C@H]1CSSC[C@@H](C(=O)N[C@@H](Cc2c[nH]c3ccccc23)C(=O)N2CCC[C@H]2C(N)=O)NC(=O)[C@H](CC(=O)O)NC(=O)[C@H](CCCCNC(=O)CN2CCN(CC(=O)O)CCN(CC(=O)O)CCN(CC(=O)O)CC2)NC(=O)[C@H](Cc2ccc3ccccc3c2)NC(=O)[C@H](CC(N)=O)NC(=O)[C@H](CC2CCNCC2)NC1=O)N(C)C(=O)[C@@H](NC(=O)[C@H](Cc1c[nH]c2c(C)cccc12)NC(C)=O)[C@@H](C)O [compound 408, Ac-(7Me-Trp)-T-(NMe-Nle)-C(3)-[3-(4-piperidinyl)-Ala]-N-(2Nal)-Lys(DOTA)-D-C(3)-W-P-CONH2] (Ac-[Trp(7-Me)]T[NMeNle]C[Ala(piperidin-4-yl)]N[2Nal]K(DOTA)DCWP-NH2; disulfide 4-10)
9 | 100 to 300 nM | CC[C@H](C)[C@H](NC(=O)[C@@H](NC(=O)[C@H](Cc1c[nH]c2ccccc12)NC(C)=O)[C@@H](C)O)C(=O)N[C@H]1CSSC[C@@H](C(=O)N[C@@H](Cc2c[nH]c3ccccc23)C(=O)N2CCC[C@H]2C(N)=O)NC(=O)[C@H](CC(=O)O)N(C)C(=O)[C@H](Cc2cnc[nH]2)NC(=O)[C@H](Cc2c[nH]c3ccccc23)NC(=O)[C@H](CC(N)=O)NC(=O)[C@H](CC(N)=O)NC1=O [compound 388, Ac-W-T-I-C(3)-N-N-W-H-(NmeD)-C(3)-W-P-CONH2] (Ac-WTICNNWH[NMeD]CWP-NH2; disulfide 4-10)
10 | < 1 nM | CC[C@@H](C)[C@H](NC(=O)[C@@H](NC(=O)[C@H](Cc1c[nH]c2ccccc12)NC(C)=O)[C@@H](C)O)C(=O)N[C@H]1CSSC[C@@H](C(=O)N[C@@H](Cc2c[nH]c3ccccc23)C(=O)N2CCC[C@H]2C(N)=O)NC(=O)[C@H](CC(=O)O)NC(=O)[C@H](CCCCNC(=O)CN2CCN(CC(=O)O)CCN(CC(=O)O)CCN(CC(=O)O)CC2)NC(=O)[C@H](Cc2ccc3ccccc3c2)NC(=O)[C@H](CC(N)=O)NC(=O)C(CN2CCOCC2)NC1=O (single isomer, unassigned) [compound 312, Ac-W-T-(Allo-Ile)-C(3)-[3-(1-morpholinyl)-Ala]-N-(2Nal)-Lys(DOTA)-D-C(3)-W-P-CONH2]
11 | 10 to 100 nM | CC[C@H](C)[C@H](NC(=O)[C@@H](NC(=O)[C@H](Cc1c[nH]c2ccccc12)NC(C)=O)[C@@H](C)O)C(=O)N[C@H]1CSSC[C@@H](C(=O)N[C@@H](Cc2c[nH]c3ccccc23)C(=O)N2CCC[C@H]2C(N)=O)NC(=O)[C@H](CC(=O)O)NC(=O)[C@H](Cc2cnc[nH]2)N(C)C(=O)[C@H](Cc2c[nH]c3ccccc23)NC(=O)[C@H](CC(N)=O)NC(=O)[C@H](CC(N)=O)NC1=O [compound 387, Ac-W-T-I-C(3)-N-N-W-(NmeH)-D-C(3)-W-P-CONH2] (Ac-WTICNNW[NMeH]DCWP-NH2; disulfide 4-10)
12 | 10 to 100 nM | CSCC[C@H](NC(C)=O)C(=O)N[C@@H](Cc1c[nH]c2ccccc12)C(=O)N[C@H](C(=O)N[C@@H](Cc1ccc2ccccc2c1)C(=O)N[C@H]1CSSC[C@@H](C(=O)N[C@@H](Cc2c[nH]c3ccccc23)C(=O)N2CCC[C@H]2C(N)=O)NC(=O)[C@H](CC(=O)O)NC(=O)[C@H](Cc2cnc[nH]2)NC(=O)[C@H](Cc2c[nH]c3ccccc23)NC(=O)[C@H](CC(N)=O)NC(=O)[C@H](CC(N)=O)NC1=O)[C@@H](C)O [compound 46, Ac-M-W-T-(2Nal)-C(3)-N-N-W-H-D-C(3)-W-P-CONH2] (Ac-MWT[2Nal]CNNWHDCWP-NH2; disulfide 5-11)
13 | 10 to 100 nM | CC[C@H](C)[C@H](NC(=O)[C@@H](NC(=O)[C@H](Cc1c[nH]c2ccccc12)NC(=O)[C@H](CCSC)NC(C)=O)[C@@H](C)O)C(=O)N[C@H]1CSSC[C@@H](C(=O)N[C@@H](Cc2cn(C)c3ccccc23)C(=O)N2CCC[C@H]2C(N)=O)NC(=O)[C@H](CC(=O)O)NC(=O)[C@H](Cc2c[nH]cn2)NC(=O)[C@H](Cc2c[nH]c3ccccc23)NC(=O)[C@H](CC(N)=O)NC(=O)[C@H](CC(N)=O)NC1=O [compound 43, Ac-M-W-T-I-C(3)-N-N-W-H-D-C(3)-(1Me-W)-P-CONH2] (Ac-MWTICNNWHDC[Trp(1-Me)]P-NH2; disulfide 5-11)
14 | < 1 nM | CC(=O)N[C@@H](Cc1c[nH]c2ccccc12)C(=O)N[C@H](C(=O)N(C)[C@@H](CC(C)(C)C)C(=O)N[C@H]1CSCSC[C@@H](C(=O)N[C@@H](Cc2c[nH]c3ccccc23)C(=O)N2CCC[C@H]2C(N)=O)NC(=O)[C@H](CC(=O)O)NC(=O)[C@H](CCCCNC(=O)CN2CCN(CC(=O)O)CCN(CC(=O)O)CCN(CC(=O)O)CC2)NC(=O)[C@H](Cc2ccc3ccccc3c2)NC(=O)[C@H](CC(N)=O)NC(=O)[C@H](CC2CCN(CC(=O)O)CC2)NC1=O)[C@@H](C)O [compound 447] (Ac-WT[NMetBuAla]C[Ala(1-CH2CO2H-4-piperidyl)]N[2Nal]K(DOTA)DCWP-NH2; linker 4-10 via CH2)
